{CholTEG} = cholesteryl-TEG lipid
Columns and labels:
[1] = tested on: U-87 human glioblastoma cells; assay: Delivery of siRNA to U-87 tumor cells (cell cy3-fluorescence); type: cell-based; conditions: U-87 cells, 40 pmoles siRNA, 24 hours after sonication, MI>1.3
Protocol: (§1) MATBIII rat mammary carcinoma and U-87 human glioblastoma cells were cultured in McCoy's 5A Medium (modified) (1×) (Invitrogen, Carlsbad, Calif., USA) and Eagle's Minimum Essential Medium (EMEM) (ATCC, Manassas, Va.) respectively. Both the media solutions were supplemented with 10% heat deactivated fetal bovine serum (FBS) (Fisher Scientific, Springfield, N.J.) and 1% penicillin-streptomycin (Sigma Aldrich, St Louis, Mo.). The cells were maintained at 37° C. in a humidified atmosphere with 5% CO2.
(§2) MATB-III and U-87 cells were grown in 10 mL capacity Opticell units (Nalge Nunc International, Rochester, N.Y.) to 90% confluence. The media in OptiCell was replaced with 10 mL fresh media containing 40 pmoles of either cy3-siRNA or cholesterol-siRNA. […] After incubation, the cells were imaged using a fluorescence microscope (Zeiss Axio Imager.Z1, Carl Zeiss). […] In the region of interest (ROI) in the fluorescent images, cell fluorescence was measured and the mean values of cell fluorescence were calculated. ImageJ was used to process the images and calculate fluorescence intensities.
(§3) The data are reported as mean+1.0 standard error (SE) for N=4. The statistical significance of the differences between the groups was evaluated using two-sample t-test and the statistical analyses were carried out using Minitab® 12 (Minitab Inc, State College, Pa. USA).

native HSA = native HSA (Homo sapiens, UniProt P02768)
native HSA, sequence (P02768 25-609): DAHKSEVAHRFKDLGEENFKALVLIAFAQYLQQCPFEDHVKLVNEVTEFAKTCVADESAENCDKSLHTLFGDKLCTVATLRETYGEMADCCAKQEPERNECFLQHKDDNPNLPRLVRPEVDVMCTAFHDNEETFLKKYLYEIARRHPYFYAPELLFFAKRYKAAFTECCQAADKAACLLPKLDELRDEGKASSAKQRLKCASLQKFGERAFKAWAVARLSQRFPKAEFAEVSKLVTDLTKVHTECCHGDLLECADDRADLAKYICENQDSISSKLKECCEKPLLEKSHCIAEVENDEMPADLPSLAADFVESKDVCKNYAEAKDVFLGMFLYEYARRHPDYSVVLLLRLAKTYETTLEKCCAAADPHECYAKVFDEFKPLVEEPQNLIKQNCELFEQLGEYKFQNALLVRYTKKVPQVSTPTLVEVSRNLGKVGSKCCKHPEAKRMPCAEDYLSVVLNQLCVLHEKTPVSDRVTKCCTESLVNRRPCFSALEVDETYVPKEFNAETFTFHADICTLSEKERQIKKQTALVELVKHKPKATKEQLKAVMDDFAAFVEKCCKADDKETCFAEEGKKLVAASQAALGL
Protocol: Optison™ (GE Healthcare, Chalfont St. Giles, United Kingdom, 10 mg/ml albumin) was centrifuged; the top layer was discarded and the excess albumin solution in the bottom was used for the binding studies. Lyophilized human serum albumin (HSA) powder (Sigma Aldrich, St. Louis Mo.) was dissolved in 1× phosphate buffered saline (PBS) to make a stock solution of 10 mg/mL. Both Optison and native albumin solution dilutions were prepared with 1× PBS. Denatured HSA solution was prepared by heating native ESA solution to 80° C. for 20 minutes.
The stock solutions of cy3-siRNA and cy3-siRNA-cholesterol, 20 μM were prepared in RNAse free water and stored at −20° C. […]
All the reactions were loaded onto precast 6% nondenaturing polyacrylamide gels (Invitrogen, Carlsbad, Calif., USA). […] The gels containing either DNA, protein or both were imaged for cy3 fluorescence using a typhoon scanner (Typhoon™9410, GE Healthcare).
The fluorescence of Cy3 attached to siRNA can be visualized as distinct siRNA bands on the gel.
The fluorescence intensity of siRNA in each lane was estimated manually by drawing a box around the bands. […] Fluorescence intensities of bound siRNA over a wide range of albumin concentrations were calculated. Relative fluorescence, R was calculated as: R=(Fbound-Ffree)/Ffree (1) […]

denatured HSA = assay: Gel shift assay, binding of siRNA to denatured HSA; parameters: species or system human; conditions: same amount of denatured HSA, compared with native HSA and Optison
Excerpt: The reaction buffer was 1× PBS, pH 7.4.

Optison = target: T1, Optison (Homo sapiens, UniProt P02768); assay: Gel shift assay, binding of siRNA to Optison albumin solution
T1 construct: purchased GE Healthcare, Chalfont St. Giles, United Kingdom
T1 sequence (P02768 25-609): as above

[2] = tested on: MATBIII rat mammary carcinoma cells; assay: Delivery of siRNA to MATBIII cells, Optison/ultrasound versus RNAifect; type: cell-based; conditions: 24 hours
Protocol: as §1, §2, §3

Substance: cholesterol-siRNA: siRNA for VEGF silencing, 5'-Cy3 labelled, cholesteryl TEG lipid at 3' of sense strand (SEQ ID NO: 1 and 2) (sense GCAUUUGUUUGUCCAAGAUUU; antisense AAAUCUUGGACAAACAAAUGC; sense: 3' {CholTEG}, sugars by position and backbone not given here; antisense: chemistry not given here; 5'-Cy3 label, further chemistry not fully specified)
- Increase in average cell fluorescence, Optison/ultrasound treated versus untreated cells [1]: 53%
- Kd (native HSA): 6.4 µM
- Binding to native HSA in gel shift assay (native HSA; 0 to 50 pmoles albumin): bound
- Binding to denatured HSA in gel shift assay (denatured HSA): significantly decreased
- Binding to Optison solution in gel shift assay (Optison; 0 to 50 pmoles albumin): bound
- Kd (Optison; binding to Optison, gel shift, non-linear fit, read-out: Dissociation constant, kd): 7.16 µM
- Amount bound to Optison solution compared with native HSA (Optison; low albumin concentration, 0 to 15 μM): higher
- Average cell fluorescence, Optison/ultrasound delivery versus RNAifect [2]: no significant difference

— patent publication US11007212B2, “Microbubble complexes and methods of use” (General Electric Company, priority 2011, dated 2021)
